In BigSolDB 2.1:

c1ccc2c(c1)CCc1ccccc1N2
solubility (mole fraction)
Details | 283.15 K | 288.15 K | 293.15 K | 298.15 K | 303.15 K | 308.15 K | 313.15 K | 318.15 K | 323.15 K | 328.15 K
in DMSO | – | – | 0.0199 | 0.0239 | 0.0285 | 0.0336 | 0.0391 | 0.045 | 0.0516 | 0.0592
in ethanol | 0.000769 | 0.00102 | 0.00136 | 0.00175 | 0.00227 | 0.00284 | 0.0036 | 0.00453 | 0.00558 | 0.00691
in ethylene glycol | 0.000351 | 0.000427 | 0.000494 | 0.000566 | 0.000642 | 0.000722 | 0.000812 | 0.000905 | 0.00101 | 0.00111
in isopropanol | 0.000448 | 0.000585 | 0.000783 | 0.000992 | 0.00127 | 0.00161 | 0.00204 | 0.00253 | 0.00314 | 0.00388
in water | 8.4e-07 | 1.27e-06 | 1.83e-06 | 2.73e-06 | 3.77e-06 | 5.41e-06 | 7.42e-06 | 1.02e-05 | 1.39e-05 | 1.87e-05
